Test results reported in the supplement of paper PMC10307832.

Tests used:
Test in all cases: relative viability (nuclei count vs DMSO), 5 days (fraction); higher = more cells survive
RERF-LC-KJ = system: RERF-LC-KJ
Procedure, shortened: (§1)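 The day after seeding in 1536-well plates, lung cancer cell lines were treated by pin tool with a single drug, or with a fixed anchor-drug dose together with five library-drug doses (not always all listed) in √10 steps. After 5 days, a combined fix-and-stain solution (final 0.05% Triton X-100, 1% formaldehyde, 1 ug/ml Hoechst) was added. Nuclei counted on 4× images gave relative viability as treated counts over vehicle counts, reported as the median of duplicate plates.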

EKVX = system: EKVX
Procedure, shortened: as §1

NCI-H2405 = system: NCI-H2405
Procedure, shortened: as §1

NCI-H1666 = system: NCI-H1666
Procedure, shortened: as §1

NCI-H838 = system: NCI-H838
Procedure, shortened: as §1

COR-L23 = system: COR-L23
Procedure, shortened: as §1

HARA = system: HARA
Procedure, shortened: as §1

BEN = system: BEN
Procedure, shortened: as §1

NCI-H460 = system: NCI-H460
Procedure, shortened: as §1

NCI-H1993 = system: NCI-H1993
Procedure, shortened: as §1

LOU-NH91 = system: LOU-NH91
Procedure, shortened: as §1

NCI-H1975 = system: NCI-H1975
Procedure, shortened: as §1

NCI-H650 = system: NCI-H650
Procedure, shortened: as §1

NCI-H1915 = system: NCI-H1915
Procedure, shortened: as §1

NCI-H2228 = system: NCI-H2228
Procedure, shortened: as §1

NCI-H1650 = system: NCI-H1650
Procedure, shortened: as §1

NCI-H2023 = system: NCI-H2023
Procedure, shortened: as §1

LU99A = system: LU99A
Procedure, shortened: as §1

A-427 = system: A-427
Procedure, shortened: as §1

SW 1573 = system: SW 1573
Procedure, shortened: as §1

COCC1(CO)C(=O)C2CCN1CC2 (stereo unspecified) [PRIMA-1MET] + CC(C)C[C@H](NC(=O)[C@H](Cc1ccccc1)NC(=O)c1cnccn1)B(O)O [Bortezomib] (partner 0.002 µM)
relative viability (RERF-LC-KJ; first compound 0.2 µM): 1.35 | relative viability (RERF-LC-KJ; first compound 0.6325 µM): 1.04 | relative viability (RERF-LC-KJ; first compound 2 µM): 1.13 | relative viability (RERF-LC-KJ; first compound 6.325 µM): 1.15 | relative viability (RERF-LC-KJ; first compound 20 µM): 1.04 | relative viability (EKVX; first compound 0.2 µM): 1.16 | relative viability (EKVX; first compound 0.6325 µM): 0.851 | relative viability (EKVX; first compound 2 µM): 0.943 | relative viability (EKVX; first compound 6.325 µM): 1.06 | relative viability (EKVX; first compound 20 µM): 0.845 | relative viability (NCI-H2405; first compound 0.2 µM): 0.716 | relative viability (NCI-H2405; first compound 0.6325 µM): 0.786 | relative viability (NCI-H2405; first compound 6.325 µM): 0.92 | relative viability (NCI-H2405; first compound 20 µM): 0.952 | relative viability (NCI-H1666; first compound 0.2 µM): 0.836 | relative viability (NCI-H1666; first compound 0.6325 µM): 0.777 | relative viability (NCI-H1666; first compound 2 µM): 0.816 | relative viability (NCI-H1666; first compound 6.325 µM): 0.983 | relative viability (NCI-H1666; first compound 20 µM): 0.305 | relative viability (NCI-H838; first compound 0.2 µM): 0.9 | relative viability (NCI-H838; first compound 0.6325 µM): 0.652 | relative viability (NCI-H838; first compound 2 µM): 0.745 | relative viability (NCI-H838; first compound 6.325 µM): 0.978 | relative viability (NCI-H838; first compound 20 µM): 0.263 | relative viability (COR-L23; first compound 0.2 µM): 1.29 | relative viability (COR-L23; first compound 0.6325 µM): 0.97 | relative viability (COR-L23; first compound 2 µM): 0.954 | relative viability (COR-L23; first compound 6.325 µM): 1.05 | relative viability (COR-L23; first compound 20 µM): 0.0202 | relative viability (HARA; first compound 0.2 µM): 1.24 | relative viability (HARA; first compound 0.6325 µM): 0.704 | relative viability (HARA; first compound 6.325 µM): 1.07 | relative viability (HARA; first compound 20 µM): 1.14 | relative viability (BEN; first compound 0.2 µM): 0.853 | relative viability (BEN; first compound 0.6325 µM): 0.75 | relative viability (BEN; first compound 6.325 µM): 0.888 | relative viability (BEN; first compound 20 µM): 0.864 | relative viability (NCI-H460; first compound 0.2 µM): 1.38 | relative viability (NCI-H460; first compound 0.6325 µM): 0.967 | relative viability (NCI-H460; first compound 2 µM): 1.05 | relative viability (NCI-H460; first compound 6.325 µM): 0.581 | relative viability (NCI-H460; first compound 20 µM): 0.0059 | relative viability (NCI-H1993; first compound 0.2 µM): 1.21 | relative viability (NCI-H1993; first compound 0.6325 µM): 1.07 | relative viability (NCI-H1993; first compound 2 µM): 1.94 | relative viability (NCI-H1993; first compound 6.325 µM): 1.02 | relative viability (NCI-H1993; first compound 20 µM): 1.24 | relative viability (LOU-NH91; first compound 0.2 µM): 0.452 | relative viability (LOU-NH91; first compound 0.6325 µM): 0.403 | relative viability (LOU-NH91; first compound 2 µM): 0.541 | relative viability (LOU-NH91; first compound 6.325 µM): 0.423 | relative viability (LOU-NH91; first compound 20 µM): 0.485 | relative viability (NCI-H1975; first compound 0.2 µM): 0.457 | relative viability (NCI-H1975; first compound 0.6325 µM): 0.408 | relative viability (NCI-H1975; first compound 2 µM): 0.399 | relative viability (NCI-H1975; first compound 6.325 µM): 0.4 | relative viability (NCI-H1975; first compound 20 µM): 0.419 | relative viability (NCI-H650; first compound 0.2 µM): 1.11 | relative viability (NCI-H650; first compound 2 µM): 0.816 | relative viability (NCI-H650; first compound 6.325 µM): 0.508 | relative viability (NCI-H650; first compound 20 µM): 0.117 | relative viability (NCI-H1915; first compound 0.2 µM): 1.07 | relative viability (NCI-H1915; first compound 0.6325 µM): 0.695 | relative viability (NCI-H1915; first compound 2 µM): 0.918 | relative viability (NCI-H1915; first compound 6.325 µM): 0.764 | relative viability (NCI-H1915; first compound 20 µM): 0.956 | relative viability (NCI-H2228; first compound 0.2 µM): 1.1 | relative viability (NCI-H2228; first compound 0.6325 µM): 0.957 | relative viability (NCI-H2228; first compound 2 µM): 1.09 | relative viability (NCI-H2228; first compound 6.325 µM): 1.04 | relative viability (NCI-H2228; first compound 20 µM): 0.0398 | relative viability (NCI-H1650; first compound 0.2 µM): 0.207 | relative viability (NCI-H1650; first compound 0.6325 µM): 0.222 | relative viability (NCI-H1650; first compound 2 µM): 0.205 | relative viability (NCI-H1650; first compound 6.325 µM): 0.188 | relative viability (NCI-H1650; first compound 20 µM): 0.197 | relative viability (NCI-H2023; first compound 0.2 µM): 1.17 | relative viability (NCI-H2023; first compound 0.6325 µM): 0.877 | relative viability (NCI-H2023; first compound 2 µM): 0.893 | relative viability (NCI-H2023; first compound 6.325 µM): 0.951 | relative viability (NCI-H2023; first compound 20 µM): 1.02 | relative viability (LU99A; first compound 0.2 µM): 1.09 | relative viability (LU99A; first compound 0.6325 µM): 0.957 | relative viability (LU99A; first compound 2 µM): 1.15 | relative viability (LU99A; first compound 6.325 µM): 0.892 | relative viability (LU99A; first compound 20 µM): 0.103 | relative viability (A-427; first compound 0.2 µM): 1.09 | relative viability (A-427; first compound 0.6325 µM): 0.881 | relative viability (A-427; first compound 2 µM): 0.901 | relative viability (A-427; first compound 6.325 µM): 0.839 | relative viability (A-427; first compound 20 µM): 0.962 | relative viability (SW 1573; first compound 0.2 µM): 1.13 | relative viability (SW 1573; first compound 0.6325 µM): 0.802 | relative viability (SW 1573; first compound 2 µM): 1.03 | relative viability (SW 1573; first compound 6.325 µM): 0.421 | relative viability (SW 1573; first compound 20 µM): 0.0222
